In this assay the test system is 883617-216-R-J1-PDC complex spheroid viability. As to the kind of experiment: Anticancer human tumor 883617-216-R-J1-PDC patient-derived bladder carcinoma cell line growth inhibition. The note with it: for viability, T/C: stronger effect = lower value. In short, it runs like this:
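Drug combinations with the LSD1 inhibitor iadademstat tested on tumor cells co-cultured as spheroids with endothelial cells and mesenchymal stem cells. Concentrations descended in half-log increments from clinical Cmax or 10 microM.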

[1] abbreviates: curve of first compound, second compound 0.1 µM.
Setting [2] is: curve of first compound, second compound 0.316 µM.
Setting [3] is: curve of first compound, second compound 1 µM.
Where [4] appears, read: curve of first compound, second compound 3.16 µM.
Where [5] appears, read: curve of first compound, second compound 10 µM.
Where [6] appears, read: second compound 0.1 µM, first compound 0.00316 µM.
The mark [7] stands for this setting: second compound 0.1 µM, first compound 0.01 µM.
[8] abbreviates: second compound 0.1 µM, first compound 0.0316 µM.
Where [9] appears, read: second compound 0.1 µM, first compound 0.1 µM.
Where [10] appears, read: second compound 0.1 µM, first compound 0.316 µM.
Where [11] appears, read: second compound 0.1 µM, first compound 1 µM.
Setting [12] is: second compound 0.316 µM, first compound 0.00316 µM.
The mark [13] stands for this setting: second compound 0.316 µM, first compound 0.01 µM.
[14] abbreviates: second compound 0.316 µM, first compound 0.0316 µM.
Setting [15] is: second compound 0.316 µM, first compound 0.1 µM.
Where [16] appears, read: second compound 0.316 µM, first compound 0.316 µM.
[17] abbreviates: second compound 0.316 µM, first compound 1 µM.
The mark [18] stands for this setting: second compound 1 µM, first compound 0.00316 µM.
Setting [19] is: second compound 1 µM, first compound 0.01 µM.
Where [20] appears, read: second compound 1 µM, first compound 0.0316 µM.
[21] abbreviates: second compound 1 µM, first compound 0.1 µM.
Setting [22] is: second compound 1 µM, first compound 0.316 µM.
Where [23] appears, read: second compound 1 µM, first compound 1 µM.
The mark [24] stands for this setting: second compound 3.16 µM, first compound 0.00316 µM.
Where [25] appears, read: second compound 3.16 µM, first compound 0.01 µM.
Setting [26] is: second compound 3.16 µM, first compound 0.0316 µM.
Setting [27] is: second compound 3.16 µM, first compound 0.1 µM.
[28] abbreviates: second compound 3.16 µM, first compound 0.316 µM.
Where [29] appears, read: second compound 3.16 µM, first compound 1 µM.
Setting [30] is: second compound 10 µM, first compound 0.00316 µM.
[31] abbreviates: second compound 10 µM, first compound 0.01 µM.
The mark [32] stands for this setting: second compound 10 µM, first compound 0.0316 µM.
Setting [33] is: second compound 10 µM, first compound 0.1 µM.
Where [34] appears, read: second compound 10 µM, first compound 0.316 µM.
Setting [35] is: second compound 10 µM, first compound 1 µM.
The mark [36] stands for this setting: second compound 0.1 µM, first compound 0.000316 µM.
The mark [37] stands for this setting: second compound 0.1 µM, first compound 0.001 µM.
Where [38] appears, read: second compound 0.316 µM, first compound 0.000316 µM.
Setting [39] is: second compound 0.316 µM, first compound 0.001 µM.
[40] abbreviates: second compound 1 µM, first compound 0.000316 µM.
Setting [41] is: second compound 1 µM, first compound 0.001 µM.
[42] abbreviates: second compound 3.16 µM, first compound 0.000316 µM.
The mark [43] stands for this setting: second compound 3.16 µM, first compound 0.001 µM.
The mark [44] stands for this setting: second compound 10 µM, first compound 0.000316 µM.
The mark [45] stands for this setting: second compound 10 µM, first compound 0.001 µM.

The structures appear in SMILES notation. Several values for one entry are separate records, joined by “and”; a condition that tells them apart may be missing. Identical values can stand only once.
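Also: exposure lasted seven days after three days of spheroid growth.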
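For viability, T/C in this document: 100% = DMSO vehicle control luminescence.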

In the case of `O=C(c1cc(Cc2n[nH]c(=O)c3ccccc23)ccc1F)N1CCN(C(=O)C2CC2)CC1`, the viability, T/C (as a rule, the result in the treated group divided by that in the control group, in per cent) reads like this: (compound 0.0316 µM) 90.5% and 78.2%; (compound 0.1 µM) 99.3% and 78.3%; (compound 0.316 µM) 92.2% and 59.4%; (compound 1 µM) 75.5% and 42.5%; (compound 3.16 µM) 54.9% and 41.5%; (compound 10 µM) 43.3% and 30.9%. Also, the IC50 (in general, the concentration at which inhibition is half-maximal) (curve of compound) was 4910 nM and 633 nM.
In the case of `Nc1ncn(C2CC(O)C(CO)O2)c(=O)n1` (stereo unspecified) + NC1CCC(NC2CC2c2ccccc2)CC1, the IC50 was above 1000 nM under setting [1]; above 1000 nM under setting [2]; above 1000 nM under setting [3]; above 1000 nM under setting [4]; above 1000 nM under setting [5]. Moreover, the viability, T/C is 109% under setting [6]; 99.4% under setting [7]; 94.7% under setting [8]; 78.1% under setting [9]; 72.6% under setting [10]; 62.4% under setting [11]. The viability, T/C under setting [12] was 103%; the viability, T/C under setting [13] was 115%; the viability, T/C under setting [14] is 102%; the viability, T/C under setting [15] was 89.8%; the viability, T/C under setting [16] is 79.4%; the viability, T/C under setting [17] was 67.1%. Besides, the viability, T/C is, setting by setting: under setting [18], 103%; under setting [19], 98.8%; under setting [20], 96.7%; under setting [21], 89.6%; under setting [22], 77.7%; under setting [23], 69.6%. In addition, the viability, T/C reads like this: under setting [24], 108%; under setting [25], 100%; under setting [26], 92.4%; under setting [27], 84.8%; under setting [28], 78.6%; under setting [29], 66.9%. Moreover, the viability, T/C was 101% under setting [30]; 106% under setting [31]; 108% under setting [32]; 92.3% under setting [33]; 93.8% under setting [34]; 77.6% under setting [35].
With `COc1cc(C2c3cc4c(cc3C(OC3OC5COC(C)OC5C(O)C3O)C3COC(=O)C23)OCO4)cc(OC)c1O` (stereo unspecified), the viability, T/C runs as follows: (compound 0.00949 µM) 94.6% and 80.4%; (compound 0.03 µM) 99.6% and 65.2%; (compound 0.0949 µM) 64.6% and 46.6%; (compound 0.3 µM) 45.4% and 38.4%; (compound 0.949 µM) 44.4% and 41.1%; (compound 3 µM) 35.4% and 29.4%. The IC50 (curve of compound) was 198 nM and 87.6 nM.
Regarding `Cn1ncnc1C1c2n[nH]c(=O)c3cc(F)cc(c23)NC1c1ccc(F)cc1` (stereo unspecified) + NC1CC1c1ccc(-c2cccc(O)c2)cc1, the IC50 under setting [1] was determined as 15.1 nM; the IC50 under setting [2] turned out to be 16.2 nM; the IC50 under setting [3] amounted to 12.4 nM; the IC50 under setting [4] was found to be 8.5 nM; the IC50 under setting [5] is 6.41 nM. Besides, the viability, T/C was 105% under setting [36]; 95.4% under setting [37]; 76.4% under setting [6]; 53% under setting [7]; 44.1% under setting [8]; 37.8% under setting [9]. Further, the viability, T/C is, setting by setting: under setting [38], 116%; under setting [39], 103%; under setting [12], 73%; under setting [13], 54.3%; under setting [14], 47.1%; under setting [15], 40.8%. The viability, T/C reads like this: under setting [40], 118%; under setting [41], 88.9%; under setting [18], 68.6%; under setting [19], 50.2%; under setting [20], 43%; under setting [21], 37.8%. Besides, the viability, T/C was 92.4% under setting [42]; 93% under setting [43]; 62.6% under setting [24]; 50.4% under setting [25]; 42.2% under setting [26]; 33.9% under setting [27]. In addition, the viability, T/C reads like this: under setting [44], 83.5%; under setting [45], 64.2%; under setting [30], 58.1%; under setting [31], 44.9%; under setting [32], 40.9%; under setting [33], 32.3%.
Take `CC1COCCN1c1cc(C2(S(C)(=N)=O)CC2)nc(-c2ccnc3[nH]ccc23)n1` (stereo unspecified): the viability, T/C is 103% and 94.9% (compound 0.0316 µM); 98.4% and 71.9% (compound 0.1 µM); 65.3% and 47.5% (compound 0.316 µM); 44.2% and 42.4% (compound 1 µM); 39.6% and 31.8% (compound 3.16 µM); 28.1% and 23.8% (compound 10 µM). In addition, the IC50 (curve of compound) is 721 nM and 377 nM.
With `COc1cc(Nc2ncc3c(n2)-c2ccc(Cl)cc2C(c2c(F)cccc2OC)=NC3)ccc1C(=O)O` + NC1CC1c1ccc(-c2cccc(O)c2)cc1, the IC50 under setting [1] came to 30.4 nM; the IC50 under setting [2] is 30.5 nM; the IC50 under setting [3] was found to be 20.6 nM; the IC50 under setting [4] turned out to be 18.8 nM; the IC50 under setting [5] was 16.9 nM. The viability, T/C is 92.4% under setting [6]; 76.6% under setting [7]; 48.8% under setting [8]; 37.8% under setting [9]; 37.3% under setting [10]; 33.4% under setting [11]. The viability, T/C is, setting by setting: under setting [12], 109%; under setting [13], 67.8%; under setting [14], 52.6%; under setting [15], 37.6%; under setting [16], 36.7%; under setting [17], 36%. In addition, the viability, T/C reads like this: under setting [18], 106%; under setting [19], 60.9%; under setting [20], 43.2%; under setting [21], 39.7%; under setting [22], 34.5%; under setting [23], 36.5%. Also, the viability, T/C is 81.8% under setting [24]; 63.1% under setting [25]; 38.8% under setting [26]; 37.2% under setting [27]; 36.6% under setting [28]; 31.5% under setting [29]. The viability, T/C is 72.7% under setting [30]; 54.7% under setting [31]; 46.3% under setting [32]; 31.6% under setting [33]; 35.1% under setting [34]; 32.6% under setting [35].
For the molecule `CC(C)CC(NC(=O)CNC(=O)c1cc(Cl)ccc1Cl)B1OC(=O)CC(CC(=O)O)(C(=O)O)O1` (stereo unspecified) + NC1CC1c1ccc(-c2cccc(O)c2)cc1, the IC50 was determined as 3.66 nM under setting [1]; 3.45 nM under setting [2]; 2.66 nM under setting [3]; 2.61 nM under setting [4]; 1.86 nM under setting [5]. Besides, the viability, T/C was 95.3% under setting [36]; 97.8% under setting [37]; 49.6% under setting [6]; 21.4% under setting [7]; 0.86% under setting [8]; 0.21% under setting [9]. The viability, T/C under setting [38] was 123%; the viability, T/C under setting [39] was 121%; the viability, T/C under setting [12] was 50.4%; the viability, T/C under setting [13] is 18%; the viability, T/C under setting [14] is 1%; the viability, T/C under setting [15] is 0.16%. Further, the viability, T/C is, setting by setting: under setting [40], 105%; under setting [41], 108%; under setting [18], 39.5%; under setting [19], 18.4%; under setting [20], 0.85%; under setting [21], 0.15%. In addition, the viability, T/C under setting [42] was 97.7%; the viability, T/C under setting [43] was 93.3%; the viability, T/C under setting [24] is 37.4%; the viability, T/C under setting [25] was 19.5%; the viability, T/C under setting [26] was 0.76%; the viability, T/C under setting [27] is 0.15%. The viability, T/C is, setting by setting: under setting [44], 81.1%; under setting [45], 69.3%; under setting [30], 33.2%; under setting [31], 10.2%; under setting [32], 0.25%; under setting [33], 0.36%.

Source of the values: PubChem BioAssay AID1918945 (Molecular Pharmacology Branch, DTP, NCI, 2023).
